Source: patent publication US11919887B2, “Substituted tetrahydrofurans as modulators of sodium channels” (Vertex Pharmaceuticals Incorporated, priority 2019, dated 2024)

The molecules below were run against human Nav 1.8 (Homo sapiens, UniProt Q9Y5Y9) (assay: E-VIPR assay detecting and measuring Nav inhibition (HEK cells expressing truncated human Nav 1.8)). Conditions: in the Absence of Human Serum in the E-VIPR Assay.
Type: cell-based
From the text: Sodium ion channels are voltage-dependent proteins that can be activated by inducing membrane voltage changes by applying electric fields. The electrical stimulation instrument and methods of use, referred to as E-VIPR, are described in International Publication No. WO 2002/008748 A3 and C.-J. Huang et al. Characterization of voltage-gated sodium channel blockers by electrical stimulation and fluorescence detection of membrane potential, 24 Nature Biotech. 439-46 (2006), both of which are incorporated by reference in their entirety. The instrument comprises a microtiter plate handler, an optical system for exciting the coumarin dye while simultaneously recording the coumarin and oxonol emissions, a waveform generator, a current- or voltage-controlled amplifier, and parallel electrode pairs that are inserted into assay plate wells. Under integrated computer control, this instrument passes user-programmed electrical stimulus protocols to cells within the wells of the microtiter plate.
16-20 hours prior to running the assay on E-VIPR, HEK cells expressing a truncated form of human Nav 1.8 with full channel activity were seeded into microtiter 384-well plates, pre-coated with matrigel, at a density of 25,000 cells per well. 2.5-5% KIR2.1 Bacmam virus was added to the final cell suspension before seeding into cell plates. HEK cells were grown in Dulbecco's Modified Eagle's Medium (DMEM) supplemented with 10% FBS (Fetal Bovine Serum, qualified; Sigma #F4135), 1% NEAA (Non-Essential Amino Acids, Gibco #11140), 1% HEPES (Gibco #15630), 1% Pen-Strep (Penicillin-Streptomycin; Gibco #15140) and 5 μg/ml Blasticidin (Gibco #R210-01). Cells were expanded in vented cap cell culture flasks, with 90-95% humidity and 5% CO2.
Human Serum (HS, Millipore #S1P1-01KL, or Sigma SLBR5469V and SLBR5470V as a 50%/50% mixture, for 25% assay final concentration)
Bath1 Buffer: • Sodium Chloride 160 mM (9.35 g/L), Potassium Chloride, 4.5 mM (0.335 g/L), Glucose 10 mM (1.8 g/L), Magnesium Chloride (Anhydrous) 1 mM (0.095 g/L), Calcium Chloride 2 mM (0.222 g/L), HEPES 10 mM (2.38 g/L) in water.
Na/TMA Cl Bath1 Buffer: • Sodium Chloride 96 mM (5.61 g/L), Potassium Chloride 4.5 mM (0.335 g/L), Tetramethylammonium (TMA)-Cl 64 mM (7.01 g/L), Glucose 10 mM (1.8 g/L), Magnesium Chloride (Anhydrous) 1 mM (0.095 g/L), Calcium Chloride 2 mM (0.222 g/L) HEPES 10 mM (2.38 g/L) in water.
Hexyl Dye Solution (2× concentration): • Bath1 Buffer containing 0.5% β-cyclodextrin (made fresh prior to each use, Sigma #C4767), 8 μM CC2-DMPE and 2 μM DiSBAC6(3). The solution was made by adding 10% Pluronic F127 stock equal to combined volumes of CC2-DMPE and DiSBAC6(3). The order of preparation was first mix Pluronic and CC2-DMPE, then add DiSBAC6(3), then while vortexing add Bath1/β-Cyclodextrin.
Compound Loading Buffer (2×concentration): Na/TMA Cl Bath1 Buffer containing HS (omitted in experiments run in the absence of human serum (HS)) 50%, VABSC-1 1 mM, BSA 0.2 mg/ml (in Bath-1), KCl 9 mM, DMSO 0.75%.
Assay Protocol (7 Key Steps): • 1) To reach the final concentration in each well, 400 nL of each compound was pre-spotted (in neat DMSO) into polypropylene compound plates at 250×desired final concentration from an intermediate stock concentration of 0.075 mM, in an 11 point dose response, 3-fold dilution, resulting in a top dose of 300 nM final concentration in the cell plate. Vehicle control (neat DMSO), and positive control (an established Nav1.8 inhibitor, 25 μM final in assay in DMSO) were added manually to the outermost columns of each plate respectively. The compound plate was backfilled with 45 μL per well of Compound Loading Buffer resulting in a 250 fold dilution of compound following a 1:1 transfer of compound into the cell plate (see Step 6). Final DMSO concentration for all wells in the assay was 0.625% (0.75% DMSO was supplemented to the Compound Loading Buffer for a final DMSO concentration of 0.625%). […]

Sequence of human Nav 1.8 (Q9Y5Y9 whole entry, looked up, the tested form may be a part): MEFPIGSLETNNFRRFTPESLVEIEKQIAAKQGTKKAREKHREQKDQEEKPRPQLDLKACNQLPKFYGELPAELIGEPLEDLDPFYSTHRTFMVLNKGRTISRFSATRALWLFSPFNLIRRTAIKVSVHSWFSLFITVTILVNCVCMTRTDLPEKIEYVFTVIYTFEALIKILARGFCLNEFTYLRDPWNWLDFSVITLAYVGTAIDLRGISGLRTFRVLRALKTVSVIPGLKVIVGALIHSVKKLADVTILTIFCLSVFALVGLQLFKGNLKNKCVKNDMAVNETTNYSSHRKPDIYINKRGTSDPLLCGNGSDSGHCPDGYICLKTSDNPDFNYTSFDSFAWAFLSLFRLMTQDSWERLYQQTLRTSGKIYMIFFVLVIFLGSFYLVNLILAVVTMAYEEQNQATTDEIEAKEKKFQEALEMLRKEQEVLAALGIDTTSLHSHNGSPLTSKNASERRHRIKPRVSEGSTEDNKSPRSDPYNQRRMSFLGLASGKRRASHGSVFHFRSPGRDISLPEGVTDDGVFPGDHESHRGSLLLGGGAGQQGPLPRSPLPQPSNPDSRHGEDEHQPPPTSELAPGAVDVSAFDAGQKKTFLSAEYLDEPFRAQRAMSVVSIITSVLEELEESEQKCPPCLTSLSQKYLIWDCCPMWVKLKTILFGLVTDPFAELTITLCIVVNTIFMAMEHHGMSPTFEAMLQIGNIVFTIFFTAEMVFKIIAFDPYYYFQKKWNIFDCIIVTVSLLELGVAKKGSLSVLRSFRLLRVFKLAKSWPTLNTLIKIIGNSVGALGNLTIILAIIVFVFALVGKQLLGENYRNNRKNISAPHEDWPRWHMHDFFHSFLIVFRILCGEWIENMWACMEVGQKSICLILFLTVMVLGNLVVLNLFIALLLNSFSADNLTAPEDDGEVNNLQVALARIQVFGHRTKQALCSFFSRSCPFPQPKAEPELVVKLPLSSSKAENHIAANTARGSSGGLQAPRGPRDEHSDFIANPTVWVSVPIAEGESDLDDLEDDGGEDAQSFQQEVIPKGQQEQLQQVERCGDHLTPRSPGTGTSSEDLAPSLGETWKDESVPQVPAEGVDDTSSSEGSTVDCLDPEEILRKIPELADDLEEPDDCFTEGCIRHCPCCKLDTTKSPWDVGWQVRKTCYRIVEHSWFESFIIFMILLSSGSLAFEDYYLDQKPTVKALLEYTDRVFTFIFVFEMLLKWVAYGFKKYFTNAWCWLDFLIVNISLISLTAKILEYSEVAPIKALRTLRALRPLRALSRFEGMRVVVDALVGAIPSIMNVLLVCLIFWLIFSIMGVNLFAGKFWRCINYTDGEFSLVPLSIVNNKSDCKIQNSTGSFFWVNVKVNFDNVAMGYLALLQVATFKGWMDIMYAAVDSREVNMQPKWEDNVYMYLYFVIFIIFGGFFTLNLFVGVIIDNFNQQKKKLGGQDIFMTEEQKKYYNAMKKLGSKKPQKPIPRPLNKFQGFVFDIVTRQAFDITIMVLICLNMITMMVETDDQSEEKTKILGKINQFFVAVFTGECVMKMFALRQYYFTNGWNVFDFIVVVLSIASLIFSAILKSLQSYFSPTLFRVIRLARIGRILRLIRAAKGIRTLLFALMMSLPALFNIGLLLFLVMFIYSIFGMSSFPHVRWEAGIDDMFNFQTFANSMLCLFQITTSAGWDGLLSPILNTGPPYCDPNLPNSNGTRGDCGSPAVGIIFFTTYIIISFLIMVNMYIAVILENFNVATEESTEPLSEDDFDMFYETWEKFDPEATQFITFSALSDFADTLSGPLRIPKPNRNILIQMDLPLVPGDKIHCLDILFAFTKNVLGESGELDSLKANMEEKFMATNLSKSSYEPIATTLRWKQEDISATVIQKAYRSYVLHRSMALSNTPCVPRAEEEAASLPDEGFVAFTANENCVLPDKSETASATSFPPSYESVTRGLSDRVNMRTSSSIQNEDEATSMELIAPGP

Structure (SMILES)	IC50 [nM]
COc1c([C@@H]2[C@@H](C)[C@](C)(C(F)(F)F)O[C@H]2C(=O)Nc2ccnc(C(N)=O)c2)ccc(F)c1F [Compound 50, 4-[[(2R,3S,4R,5R)-3-(3,4-difluoro-2-methoxy-phenyl)-4,5-dimethyl-5-(trifluoromethyl)tetrahydrofuran-2-carbonyl]amino]pyridine-2-carboxamide]	10 to 100

Same assay, conditions: in the Absence of Human Serum in the E-VIPR Assay; read-out: IC50

Structure (SMILES)	IC50 [nM]
COc1c([C@@H]2[C@@H](C(=O)Nc3ccnc(C(N)=O)c3)O[C@](C)(C(F)(F)F)[C@@H]2C)ccc(C(F)F)c1F (single isomer, unassigned) [Compound 135]	> 1000
COc1c([C@H]2[C@H](C(=O)Nc3cc(C(N)=O)ncc3F)O[C@@](C)(C(F)(F)F)[C@H]2C)ccc(F)c1F [Compound 122, 4-[[(2R,3S,4S,5R)-3-(3,4-difluoro-2-methoxy-phenyl)-4,5-dimethyl-5-(trifluoromethyl)tetrahydrofuran-2-carbonyl]amino]-5-fluoro-pyridine-2-carboxamide]	< 10

Same assay, conditions: in the Presence of Human Serum in the E-VIPR Assay; read-out: IC50

Structure (SMILES)	IC50 [nM]
C[C@H]1[C@@H](c2ccc(F)c(F)c2O)[C@H](C(=O)Nc2ccnc(C(N)=O)c2)O[C@@]1(C)C(F)(F)F [Compound 27, (2R,3S,4S,5R)-4-[[3-(3,4-difluoro-2-hydroxy-phenyl)-4,5-dimethyl-5-(trifluoromethyl)tetrahydrofuran-2-carbonyl]amino]pyridine-2-carboxamide]	10 to 100
COc1cc(F)ccc1[C@@H]1[C@@H](C(=O)Nc2ccnc(C(N)=O)c2)O[C@@](C)(C(F)(F)F)[C@H]1C (single isomer, unassigned) [Compound 37]	100 to 1000
COc1cccc(F)c1[C@@H]1C[C@](C)(C(F)(F)F)O[C@H]1C(=O)Nc1ccnc(C(N)=O)c1 (racemic) [Compound 79, rac-(2R,3S,5R)-4-[[3-(2-fluoro-6-methoxy-phenyl)-5-methyl-5-(trifluoromethyl)tetrahydrofuran-2-carbonyl]amino]pyridine-2-carboxamide]	> 1000
[2H]C([2H])([2H])Oc1c([C@H]2[C@H](C(=O)Nc3cc[n+]([O-])c(C(N)=O)c3)O[C@@](C)(C(F)(F)F)[C@H]2C)ccc(F)c1F [Compound 56, 4-[[(2R,3S,4S,5R)-3-[3,4-difluoro-2-(trideuteriomethoxy)phenyl]-4,5-dimethyl-5-(trifluoromethyl)tetrahydrofuran-2-carbonyl]amino]-1-oxido-pyridin-1-ium-2-carboxamide]	< 10
C[C@H]1[C@@H](c2ccc(F)c(F)c2OC(F)F)[C@H](C(=O)Nc2ccnc(C(N)=O)c2)O[C@@]1(C)C(F)(F)F (racemic) [Compound 115, rac-(2R,3S,4S,5R)-4-[[3-[2-(difluoromethoxy)-3,4-difluoro-phenyl]-4,5-dimethyl-5-(trifluoromethyl)tetrahydrofuran-2-carbonyl]amino]pyridine-2-carboxamide]	< 10
CNC(=O)c1cc(NC(=O)[C@H]2O[C@](C)(C(F)(F)F)C[C@@H]2c2ccc(F)c(Cl)c2OC)ccn1 (single isomer, unassigned) [Compound 58]	> 1000
COc1c([C@@H]2C[C@](C)(C(F)(F)F)O[C@H]2C(=O)Nc2ccnc(C(N)=O)c2)ccc(F)c1F (stereo in doubt) [Compound 5, rel-(2R,3S,5R)-4-[[3-(3,4-difluoro-2-methoxy-phenyl)-5-methyl-5-(trifluoromethyl)tetrahydrofuran-2-carbonyl]amino]pyridine-2-carboxamide]	10 to 100
COc1cc(F)ccc1[C@@H]1[C@@H](C(=O)Nc2ccnc(C(N)=O)c2)O[C@@](C)(C(F)(F)F)[C@@H]1C (single isomer, unassigned) [Compound 41]	10 to 100
CCOc1c([C@H]2[C@H](C(=O)Nc3ccnc(C(N)=O)c3)O[C@@](C)(C(F)(F)F)[C@H]2C)ccc(F)c1F [Compound 9, (2R,3S,4S,5R)-4-[[3-(2-ethoxy-3,4-difluoro-phenyl)-4,5-dimethyl-5-(trifluoromethyl)tetrahydrofuran-2-carbonyl]amino]pyridine-2-carboxamide]	< 10
CNC(=O)c1cc(NC(=O)[C@H]2O[C@@](C)(C(F)(F)F)[C@H](C)[C@@H]2c2ccc(F)c(F)c2OC(F)F)ccn1 (stereo in doubt) [Compound 13, rel-(2S,3R,4R,5R)-4-[[3-[2-(difluoromethoxy)-3,4-difluoro-phenyl]-4,5-dimethyl-5-(trifluoromethyl)tetrahydrofuran-2-carbonyl]amino]-N-methyl-pyridine-2-carboxamide]	10 to 100
COc1c([C@H]2[C@H](C(=O)Nc3ccnc(C(N)=O)c3)O[C@@](C)(C(F)(F)F)[C@H]2C2CC2)ccc(F)c1F (single isomer, unassigned) [Compound 95]	> 1000
C[C@H]1[C@@H](c2ccc(F)c(F)c2OC(F)F)[C@H](C(=O)Nc2cc[n+]([O-])c(C(N)=O)c2)O[C@@]1(C)C(F)(F)F [Compound 18, (2R,3S,4S,5R)-4-[[3-[2-(difluoromethoxy)-3,4-difluoro-phenyl]-4,5-dimethyl-5-(trifluoromethyl)tetrahydrofuran-2-carbonyl]amino]-1-oxido-pyridin-1-ium-2-carboxamide]	< 10
COc1c([C@@H]2[C@@H](C(=O)Nc3ccnc(C(N)=O)c3)O[C@](C)(C(F)(F)F)[C@@H]2C2CC2)ccc(F)c1F (single isomer, unassigned) [Compound 94]	< 10
CC[C@@H]1[C@H](c2ccc(F)c(F)c2OC)[C@@H](C(=O)Nc2ccnc(C(N)=O)c2)O[C@]1(C)C(F)(F)F (single isomer, unassigned) [Compound 92]	> 1000
COc1c([C@@H]2C[C@](C)(CC(F)(F)F)O[C@H]2C(=O)Nc2ccnc(C(N)=O)c2)ccc(F)c1F (single isomer, unassigned) [Compound 81]	100 to 1000
Cc1cnc(C(N)=O)cc1NC(=O)[C@H]1O[C@](C)(C(F)(F)F)[C@H](C)[C@@H]1c1ccc(F)c(F)c1OC(F)F (stereo in doubt) [Compound 151, rel-(2S,3R,4R,5S)-4-[[3-[2-(difluoromethoxy)-3,4-difluoro-phenyl]-4,5-dimethyl-5-(trifluoromethyl)tetrahydrofuran-2-carbonyl]amino]-5-methyl-pyridine-2-carboxamide]	10 to 100
COc1c([C@H]2C[C@@](C)(CC(F)(F)F)O[C@@H]2C(=O)Nc2ccnc(C(N)=O)c2)ccc(F)c1F (single isomer, unassigned) [Compound 82]	> 1000
COc1cc(F)ccc1[C@@H]1C[C@](C)(C(F)(F)F)O[C@@H]1C(=O)Nc1ccnc(C(N)=O)c1 (relative stereo) [Compound 70, rel-(2S,3S,5R)-4-[[3-(4-fluoro-2-methoxy-phenyl)-5-methyl-5-(trifluoromethyl)tetrahydrofuran-2-carbonyl]amino]pyridine-2-carboxamide]	> 1000
COc1c([C@H]2[C@H](C(=O)Nc3ccnc(C(N)=O)c3)O[C@@](C)(C(F)F)[C@H]2C)ccc(F)c1F (stereo in doubt) [Compound 99, rel-(2R,3S,4S,5R)-4-[[3-(3,4-difluoro-2-methoxy-phenyl)-5-(difluoromethyl)-4,5-dimethyl-tetrahydrofuran-2-carbonyl]amino]pyridine-2-carboxamide]	> 1000
